# According to paper PMC7155171, “Probing the Open Global Health Chemical Diversity Library for Multistage-Active Starting Points for Next-Generation Antimalarials” (ACS Infectious Diseases, 2020):
# Read-outs that look alike come from different tables or passages of the source.
# Tests used:
# [1] = system: P. falciparum Dd2 (PfLuc) line expressing firefly luciferase, asexual blood stage; assay: microbe, parasite or virus in culture; assay type: cell-based, Plasmodium falciparum; settings: Plasmodium falciparum
# [2] = system: P. berghei liver stage (PbLuc); assay: P. berghei luciferase liver stage (PbLuc) assay in HepG2-A16-CD81 hepatocytes; assay type: cell-based, Plasmodium berghei
# [3] = system: P. falciparum Dd2; assay: SYBR green I asexual blood stage proliferation assay (96 h); assay type: cell-based, Plasmodium falciparum; settings: for IC50 / Emax: Plasmodium falciparum
# [4] = HepG2 cytotoxicity screening (CellTiter-Glo); settings: human, uninfected HepG2-A16-CD81 (EGFP) hepatocytes
# [5] = DD2, read-out: P. falciparum Luciferase ABS 11-pt Reconfirmation Dose Response (48hr): IC50, 11-pt dose response, 48hr
# [6] = DD2, 8-pt dose response, 96hr, read-out: P. falciparum Luciferase ABS 8-pt Reconfirmation Dose Response (96hr): IC50
# [7] = DD2, 8-pt dose response, 96hr, read-out: P. falciparum Luciferase ABS 8-pt Reconfirmation Dose Response (96hr): Maximum inhibition (%)
# [8] = DD2, 11-pt dose response, 48hr, read-out: P. falciparum Luciferase ABS 11-pt Reconfirmation Dose Response (48hr): Maximum inhibition (%)
# [9] = DD2, 11-pt dose response, 96hr, read-out: P. falciparum Luciferase ABS 11-pt Reconfirmation Dose Response (96hr): IC50
# [10] = DD2, 11-pt dose response, 96hr, read-out: P. falciparum Luciferase ABS 11-pt Reconfirmation Dose Response (96hr): Maximum inhibition (%)
# [11] = DD2, 11-pt dose response, 96hr, read-out: P. falciparum Sybr Green I ABS 11-pt Reconfirmation Dose Response (96hr): IC50
# [12] = DD2, 11-pt dose response, 96hr, read-out: P. falciparum Sybr Green I ABS 11-pt Reconfirmation Dose Response (96hr): Maximum inhibition (%)
# [13] = DD2, read-out: CDD P. falciparum Luciferase ABS 11-pt Reconfirmation Dose Response (48hr): IC50 (μM), 11-pt dose response, 48hr
# [14] = DD2, 8-pt dose response, 96hr, read-out: CDD P. falciparum Luciferase ABS 8-pt Reconfirmation Dose Response (96hr): IC50
# [15] = DD2, 8-pt dose response, 96hr, read-out: CDD P. falciparum Luciferase ABS 8-pt Reconfirmation Dose Response (96hr): Maximum inhibition (%)
# [16] = DD2, 11-pt dose response, 48hr, read-out: CDD P. falciparum Luciferase ABS 11-pt Reconfirmation Dose Response (48hr): Maximum inhibition (%)
# [17] = DD2, 11-pt dose response, 96hr, read-out: CDD P. falciparum Luciferase ABS 11-pt Reconfirmation Dose Response (96hr): IC50
# [18] = DD2, 11-pt dose response, 96hr, read-out: CDD P. falciparum Luciferase ABS 11-pt Reconfirmation Dose Response (96hr): Maximum inhibition (%)
# [19] = DD2, Sybr Green I, 11-pt dose response, 96hr, read-out: CDD P. falciparum Sybr Green I ABS 11-pt Reconfirmation Dose Response (96hr): IC50
# [20] = DD2, Sybr Green I, 11-pt dose response, 96hr, read-out: CDD P. falciparum Sybr Green I ABS 11-pt Reconfirmation Dose Response (96hr): Maximum inhibition (%)
Compound,"IC50 [1, 13] [µM]","IC50 [1, 14] [µM]","Emax [1, 15] [%]","Emax [1, 16] [%]","IC50 [1, 17] [µM]","Emax [1, 18] [%]","IC50 [3, 19] [nM]","Emax [3, 20] [%]",inhibition at 2 µM [4] [%],other results
CCc1cnc(N)nc1NC(C)c1ccc(C)c(C)c1 (stereo not drawn) [DDD01250400],,,,,,,,,,"IC50 [1, 5]: 2.84 µM; IC50 [1, 6]: 1.66 µM; Emax [1, 7]: 81%; Emax [1, 8]: 94.8%; IC50 [1, 9]: 0.373 µM; Emax [1, 10]: 99.6%; confirmed liver stage activity [2]: confirmed liver stage activity; IC50 [3, 11]: 4480 nM; Emax [3, 12]: 62.1%"
OCC1CCCCN1c1ccc(-c2nc(-c3ccccc3F)no2)cn1 (stereo not drawn) [DDD01257937],1.36,0.46,90.5,83.7,1.23,89.1,> 12500,41.3,,
Clc1ccccc1C1(c2ccnc(-c3ccncc3)n2)CCNCC1 [DDD01257938],4.26,0.31,93.5,98.2,0.482,99.5,2220,98.9,,
CN(Cc1cccc(O)c1)CC1CCCN(CCc2ccc(Cl)cc2)C1 (stereo not drawn) [DDD01257948],2.24,0.67,94.6,97.4,1.38,99.5,802,98,,
CCn1ccnc1CN1CCCC(CO)(Cc2cccc(Cl)c2)C1 (stereo not drawn) [DDD01258327],,,,,,,,,,"IC50 [1, 5]: > 12.5 µM; IC50 [1, 6]: 2.14 µM; Emax [1, 7]: 81.2%; Emax [1, 8]: 38.3%; IC50 [1, 9]: 2.68 µM; Emax [1, 10]: 82.9%; IC50 [3, 11]: 3020 nM; Emax [3, 12]: 58.2%"
COc1cc(CNCC(O)c2cccc(F)c2)cc2c1OCO2 (stereo not drawn) [DDD01296688],3.64,0.82,,88.9,1.77,98.5,4840,88.3,,
COc1cc(CNCC(O)c2ccc(F)cc2F)cc2c1OCO2 (stereo not drawn) [DDD01296730],,,,,,,,,,"IC50 [1, 5]: 4.89 µM; IC50 [1, 6]: 1.16 µM; Emax [1, 7]: 88.4%; Emax [1, 8]: 87.3%; IC50 [1, 9]: 2.48 µM; Emax [1, 10]: 98.1%; IC50 [3, 11]: 4870 nM"
"O=C(Nc1ccc(OC2CCCC2)cc1)C1CCCN1c1nccs1 (stereo not drawn) [DDD01297375, O=C(Nc1ccc(OC2CCCC2)cc1)C1CCCN1c1nccs1]",,,,,,,,,,"IC50 ([1]; DD2, read-out: CDD P. falciparum Luc 11pt dose response (96hr, n=2): IC50 (μM), 96hr, 11-point, n=2): 0.0372 µM; IC50 ([1]; DD2, read-out: CDD P. falciparum Luciferase 11pt dose response (48hr, n=2): IC50 (μM), 48hr, 11-point, n=2): > 10 µM; Emax ([1]; DD2, 48hr, 11-point, read-out: CDD P. falciparum Luciferase ABS 11-pt Reconfirmation Dose Response (48hr): Maximum inhibition (%)): 50%; Emax ([1]; DD2, 96hr, 11-point, read-out: CDD P. falciparum Luciferase ABS 11-pt Reconfirmation Dose Response (96hr): Maximum inhibition (%)): 94.7%; CDD P. falciparum Sybr Green I ABS Dd2 Dose Response: Maximum measured (%) ([3]; Dd2, 96 h): 45.3%; IC50 ([3]; DD2, 96 h, read-out: CDD P. falciparum Sybr Green I ABS Dd2 Dose Response: IC50): > 12500 nM"
OCCN1CCC(CNCc2ccccc2OC(F)(F)F)CC1 [DDD01297525],,,,,,,,,,"IC50 [1, 5]: > 12.5 µM; IC50 [1, 6]: 1.51 µM; Emax [1, 7]: 88.7%; Emax [1, 8]: 54.6%; IC50 [1, 9]: 5.42 µM; Emax [1, 10]: 88.7%; IC50 [3, 11]: 7440 nM; Emax [3, 12]: 77.9%"
CC(O)CN1CCC(CNCc2cccc(OC(F)(F)F)c2)CC1 (stereo not drawn) [DDD01297560],> 12.5,1.04,91,58.6,5.4,87.8,2940,91.2,,
Cc1ccnc(NC(=O)c2[nH]nc(C(C)C)c2Br)c1 [DDD01298775],3.6,0.39,91.3,93,1.39,97,8740,51.2,,
CC(C)c1n[nH]c(C(=O)Nc2ccccn2)c1Br [DDD01298780],4.01,0.53,92.3,87.6,3.99,95.1,4270,51.4,,
Cc1cc(C)n(C2CN(CC(O)c3cc(F)ccc3F)C2)n1 (stereo not drawn) [DDD01298957],1.46,0.21,94.9,98.6,0.854,100,733,98.5,,
CC(O)CN1CCC(CNCc2cccc(C(F)(F)F)c2)CC1 (stereo not drawn) [DDD01300262],,,,,,,,,,"IC50 [1, 5]: 9.69 µM; IC50 [1, 6]: 1.59 µM; Emax [1, 7]: 89.5%; Emax [1, 8]: 69.7%; IC50 [1, 9]: 4.76 µM; Emax [1, 10]: 92.7%; IC50 [3, 11]: 2460 nM; Emax [3, 12]: 91.1%"
CC(O)CN1CCC(CNCc2cccc(Cl)c2)CC1 (stereo not drawn) [DDD01300263],5.96,0.76,89.7,89,2.57,98,3650,89.5,,
CC(O)CN1CCC(CNCc2cccc(Br)c2)CC1 (stereo not drawn) [DDD01304344],3.63,0.58,91.2,92.1,1.64,98.2,2060,93.8,,
CC(C)c1nn(C)c(Cl)c1CNCC(O)c1cccc(F)c1 (stereo not drawn) [DDD01304823],3.48,0.58,92.1,89.6,1.39,98.7,3660,92.5,,
CC(C)NC(=O)CNC(=O)C12CCC(=O)N1c1cc(Cl)ccc1S2 (stereo not drawn) [UCSD-0589377],,,,,,,,,3.84,
c1nc(N2CCCC(Cn3cncn3)C2)c2sccc2n1 (stereo not drawn) [UCSD-0620442],,,,,,,,,1.85,
N#Cc1nc(COc2ccc3c(c2)OCO3)oc1NC1CCCCC1 [UCSD-0630877],,,,,,,,,1.44,
Cc1nc(C)c(CN2CCOC[C@H](Oc3ccccc3)C2)s1 [UCSD-0784893],,,,,,,,,25.2,
Cc1cnc2c(c1NCc1cccnc1)c(=O)n(C)c(=O)n2C [UCSD-0787013],,,,,,,,,5.36,
CCN1C[C@@H]2[C@@H](OC)CCN(C(=O)c3cc(C)nn3CC)[C@@H]2C1 [UCSD-0791117],,,,,,,,,-3.65,
CCS(=O)(=O)NCC1OCCc2cn(CC3CCOCC3)nc21 (stereo not drawn) [UCSD-0791354],,,,,,,,,-4.05,
Cn1cnnc1S(=O)(=O)C1CCN(S(=O)(=O)c2ccc(F)c(Cl)c2)CC1 [UCSD-0795178],,,,,,,,,2.47,
